According to publication doi:10.1101/2023.04.18.537371v1 (bioRxiv, 2023):
Peptide text beside a SMILES is read from it.

Assays:
Assay type in all cases: in vitro ADME
[1] = In vitro protein binding, rapid equilibrium dialysis; conditions: SD, rat, plasma
[2] = tested on: cynomolgus monkey hepatocytes; assay: Hepatocyte stability; conditions: 1.00 μM
CYP1A2 = target: T1, CYP1A2 (Homo sapiens, UniProt P05177); assay: biochemical
T1 sequence (P05177 1-516): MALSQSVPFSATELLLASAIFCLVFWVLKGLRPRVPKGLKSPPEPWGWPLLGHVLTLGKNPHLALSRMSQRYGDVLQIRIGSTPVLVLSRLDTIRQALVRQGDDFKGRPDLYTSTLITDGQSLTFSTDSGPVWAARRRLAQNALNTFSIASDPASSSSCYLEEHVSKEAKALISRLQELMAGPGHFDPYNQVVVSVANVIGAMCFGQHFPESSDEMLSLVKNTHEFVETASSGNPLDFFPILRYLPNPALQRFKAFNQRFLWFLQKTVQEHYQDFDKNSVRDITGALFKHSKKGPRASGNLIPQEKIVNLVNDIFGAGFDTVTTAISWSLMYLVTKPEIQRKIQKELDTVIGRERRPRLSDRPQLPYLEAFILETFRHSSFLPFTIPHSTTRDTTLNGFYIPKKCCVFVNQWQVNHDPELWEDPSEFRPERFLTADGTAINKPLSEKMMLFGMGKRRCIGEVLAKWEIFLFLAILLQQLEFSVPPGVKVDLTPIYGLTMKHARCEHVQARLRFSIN

MATE2-K = MATE2-K (Homo sapiens, UniProt Q86VL8); assay: Transporter inhibition in HEK293 cells
Chain of MATE2-K (Q86VL8 1-566 isoform Q86VL8-3): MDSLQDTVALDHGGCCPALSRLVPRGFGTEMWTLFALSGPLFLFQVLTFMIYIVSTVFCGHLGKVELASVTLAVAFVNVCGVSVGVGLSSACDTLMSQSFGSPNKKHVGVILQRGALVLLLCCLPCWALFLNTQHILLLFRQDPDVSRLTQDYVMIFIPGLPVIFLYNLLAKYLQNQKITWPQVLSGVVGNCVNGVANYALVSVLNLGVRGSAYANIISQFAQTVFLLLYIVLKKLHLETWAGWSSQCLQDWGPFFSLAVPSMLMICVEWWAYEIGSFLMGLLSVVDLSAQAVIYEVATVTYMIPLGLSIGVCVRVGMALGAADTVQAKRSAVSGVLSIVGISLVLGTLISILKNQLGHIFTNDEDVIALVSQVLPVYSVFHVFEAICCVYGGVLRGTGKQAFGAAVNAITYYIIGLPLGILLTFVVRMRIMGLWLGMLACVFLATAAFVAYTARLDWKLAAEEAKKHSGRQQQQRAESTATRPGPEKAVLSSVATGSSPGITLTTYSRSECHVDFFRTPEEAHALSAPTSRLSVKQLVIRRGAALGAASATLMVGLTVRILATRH

## CC(C)[C@@H](NC(=O)[C@H](N)Cc1ccc(O)cc1)C(=O)N[C@H](CC(=O)O)C(=O)N[C@H](CCCCN)C(=O)N[C@H](CCCNC(=N)N)C(=O)O [FC-12738, (D-Tyr)-(D-Val)-(D-Asp)-(D-Lys)-(D-Arg)] (HELM PEPTIDE1{[dY].[dV].[dD].[dK].[dR]}$$$$V2.0)
[1]
  fraction unbound at 6 h, 0.2 µM: 0.482
  fraction unbound at 6 h, 2 µM: 0.443
  fraction unbound at 6 h, 10 µM: 0.493
[2]; cryopreserved cynomolgus monkey hepatocytes, 37.0°C, 120 min
  intrinsic clearance CLint(hep): < 1.9 μL/min/10^6 cells
[2]; cryopreserved cynomolgus monkey hepatocytes, 37.0°C, 120 min, LC-MS/MS
  half-life: > 6.212 h
[2]; scaled from cynomolgus monkey hepatocytes
  hepatic clearance CLint(liver): < 6.7 mL/min/kg
CYP1A2
  IC50: > 100 µM
MATE2-K
  IC50: > 100 µM
